Assay results as given in ChEMBL document CHEMBL1158448, “Synthesis and antinociceptive activity of pyrazolyl isoxazolines and pyrazolyl isoxazoles” (2009).

Columns and labels:
[1] = system: Mus musculus; test: Antinociceptive activity in Swiss albino mouse assessed as protection against acetic acid-induced abdominal constriction at 15 mg/kg, po measured for 10 mins after 5 mins of acetic acid challenge relative to control; type: functional, Abdomen
[2] = system: Rattus norvegicus; test: Antinociceptive activity in Wistar albino rat assessed as latency in reaction time required for thermal stimulus-induced tail flicking at 15 mg/kg, po after 30 mins by analgesiometric analysis (RVb=3.33 +/- 0.21 seconds); type: functional
[3] = system: Rattus norvegicus; test: Antinociceptive activity in Wistar albino rat assessed as latency in reaction time required for thermal stimulus-induced tail flicking at 30 mg/kg, po after 30 mins by analgesiometric analysis (RVb=3.33 +/- 0.21 seconds); type: functional
[4] = system: Mus musculus; test: Antinociceptive activity in Swiss albino mouse assessed as protection against acetic acid-induced abdominal constriction at 30 mg/kg, po measured for 10 mins after 5 mins of acetic acid challenge relative to control; type: functional, Abdomen
[5] = system: Rattus norvegicus; test: Antinociceptive activity in Wistar albino rat assessed as latency in reaction time required for thermal stimulus-induced tail flicking at 15 mg/kg, po after 120 mins by analgesiometric analysis (RVb=3.33 +/- 0.21 seconds); type: functional
[6] = system: Rattus norvegicus; test: Antinociceptive activity in Wistar albino rat assessed as latency in reaction time required for thermal stimulus-induced tail flicking at 15 mg/kg, po after 60 mins by analgesiometric analysis (RVb=3.16 +/- 0.16 seconds); type: functional
[7] = system: Rattus norvegicus; test: Antinociceptive activity in Wistar albino rat assessed as latency in reaction time required for thermal stimulus-induced tail flicking at 30 mg/kg, po after 60 mins by analgesiometric analysis (RVb=3.16 +/- 0.16 seconds); type: functional
[8] = system: Rattus norvegicus; test: Antinociceptive activity in Wistar albino rat assessed as latency in reaction time required for thermal stimulus-induced tail flicking at 30 mg/kg, po after 120 mins by analgesiometric analysis (RVb=3.33 +/- 0.21 seconds); type: functional
[9] = system: Rattus norvegicus; test: Antinociceptive activity in Wistar albino rat assessed as latency in reaction time required for thermal stimulus-induced tail flicking at 15 mg/kg, po after 180 mins by analgesiometric analysis (RVb=3.16 +/- 0.16 seconds); type: functional
[10] = system: Rattus norvegicus; test: Antinociceptive activity in Wistar albino rat assessed as latency in reaction time required for thermal stimulus-induced tail flicking at 30 mg/kg, po after 180 mins by analgesiometric analysis (RVb=3.16 +/- 0.16 seconds); type: functional
[11] = system: Mus musculus; test: Antinociceptive activity in Swiss albino mouse assessed as protection against acetic acid-induced abdominal constriction at 100 mg/kg, po measured for 10 mins after 5 mins of acetic acid challenge relative to control; type: functional, Abdomen
[12] = system: Rattus norvegicus; test: Antinociceptive activity in Wistar albino rat assessed as latency in reaction time required for thermal stimulus-induced tail flicking at 5 mg/kg, po after 30 mins by analgesiometric analysis (RVb=3.33 +/- 0.21 seconds); type: functional
[13] = system: Rattus norvegicus; test: Antinociceptive activity in Wistar albino rat assessed as latency in reaction time required for thermal stimulus-induced tail flicking at 5 mg/kg, po after 120 mins by analgesiometric analysis (RVb=3.33 +/- 0.21 seconds); type: functional
[14] = system: Rattus norvegicus; test: Antinociceptive activity in Wistar albino rat assessed as latency in reaction time required for thermal stimulus-induced tail flicking at 5 mg/kg, po after 60 mins by analgesiometric analysis (RVb=3.16 +/- 0.16 seconds); type: functional
[15] = system: Rattus norvegicus; test: Antinociceptive activity in Wistar albino rat assessed as latency in reaction time required for thermal stimulus-induced tail flicking at 5 mg/kg, po after 180 mins by analgesiometric analysis (RVb=3.16 +/- 0.16 seconds); type: functional

Structure (SMILES)	Activity [1] [%]	Activity [2] [s]	Activity [3] [s]	Activity [4] [%]	Activity [5] [s]	Activity [6] [s]	Activity [7] [s]	Activity [8] [s]	Activity [9] [s]	Activity [10] [s]	Activity [11] [%]	Activity [12] [s]	Activity [13] [s]	Activity [14] [s]	Activity [15] [s]
O=C1C2ON=C(c3cn(-c4ccccc4)nc3-c3ccc(Br)cc3)C2C(=O)N1c1ccccc1 (stereo not given)	2.75	3.16	3.16	49.04	3.66	3.66	7	6.83	3.33	6.5					
CCCCc1cc(-c2cn(-c3ccccc3)nc2-c2ccc(Cl)cc2)no1	12.56	3.16	3.33	47.09	3.5	3.66	6.83	6.6	3.33	6.16					
CN1C(=O)C2ON=C(c3cn(-c4ccccc4)nc3-c3ccc(Br)cc3)C2C1=O (stereo not given)	9.81	3.16	3.33	40.4	3.83	3.83	7.16	7	3.33	6.5					
O=C1C2ON=C(c3cn(-c4ccccc4)nc3-c3ccc(Cl)cc3)C2C(=O)N1c1ccccc1 (stereo not given)	23.93	3.33	3.33	43.15	4	4.16	6.16	6	3.66	5.5					
CCOc1ccc(-c2nn(-c3ccccc3)cc2C2=NOC3C(=O)N(C)C(=O)C23)cc1 (stereo not given)	22.75	3.16	3.83	47.46	3.83	4	6.16	6	3.5	5.83					
CC(=O)Oc1ccccc1C(=O)O [ASPIRIN]											62.35				
CCOc1ccc(-c2nn(-c3ccccc3)cc2C2=NOC3C(=O)N(c4ccccc4)C(=O)C23)cc1 (stereo not given)	12.16	3.16	3.16	49.51	3.5	3.16	6.83	6.16	3.5	5.83					
CCOC(=O)c1onc(-c2cn(-c3ccccc3)nc2-c2ccc(Br)cc2)c1C(=O)OCC	12.94	3.33	3.33	56.87	3.83	4	8.16	8	3.5	7.5					
COc1ccc(-c2nn(-c3ccccc3)cc2-c2cc(-c3ccccc3)on2)cc1	11.77	3.16	3.33	30.99	4	4.16	6	5.83	3.5	5.33					
CN1C(=O)C2ON=C(c3cn(-c4ccccc4)nc3-c3ccccc3)C2C1=O (stereo not given)	1.17	3.16	3.33	30.58	3.5	3.5	5.16	5	3.33	4.83					
Brc1ccc(-c2nn(-c3ccccc3)cc2-c2cc(-c3ccccc3)on2)cc1	14.52	3.16	3.33	31.39	3.66	3.23	5.83	5.66	3.5	5.16					
Cc1ccc(N2C(=O)C3ON=C(c4cn(-c5ccccc5)nc4-c4ccc(Cl)cc4)C3C2=O)cc1 (stereo not given)	22.75	3.33	3.33	42.75	3.33	3.66	5.33	5.16	3.33	4.5					
CN1C(=O)C2ON=C(c3cn(-c4ccccc4)nc3-c3ccc(Cl)cc3)C2C1=O (stereo not given)	7.84	3.16	3.33	23.15	3.83	4	6.66	6.5	3.66	5.5					
Clc1ccc(-c2nn(-c3ccccc3)cc2-c2cc(-c3ccccc3)on2)cc1	1.58	3.16	3.83	49.04	4	4.16	6.83	6.6	3.83	6.16					
O=C1C2ON=C(c3cn(-c4ccccc4)nc3-c3ccccc3)C2C(=O)N1c1ccccc1 (stereo not given)	30.58	3.16	3.33	47.39	3.33	3.5	6.83	6.66	3.33	5.66					
CCOC(=O)c1onc(-c2cn(-c3ccccc3)nc2-c2ccc(OC)cc2)c1C(=O)OCC	11.39	3.33	3.83	57.65	4.33	5	7.83	7.66	4	7					
CC(C)=CCN1CC[C@]2(C)c3cc(O)ccc3C[C@H]1[C@H]2C [(+)-PENTAZOCINE]												9.16	9.3	9.33	8
CCOC(=O)c1onc(-c2cn(-c3ccccc3)nc2-c2ccc(Cl)cc2)c1C(=O)OCC	17.27	3.33	3.83	55.29	4.16	4.33	8.66	8.33	4	7.5					
